Results reported in PMC4669708 (Cell Death & Disease, 2015).

Tests used:
Assay in all cases: c-ponatinib pulldown LC-MS/MS
Assay type in all cases: binding
HSPA5 = HSPA5 (Homo sapiens, UniProt P11021)
Outline: (§1)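 c-Ponatinib (25 nmol) immobilized on NHS-Sepharose was incubated with 10 mg whole cell lysate per replicate, in duplicate. Eluates were reduced, alkylated, trypsin-digested and analysed by gel-free 1D LC-MS/MS. Specificity was scored from Mascot, Phenyx and spectral counts, with competition by free compound.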

IRAK1 = IRAK1 (Homo sapiens, UniProt P51617)
IRAK1, sequence (P51617 whole entry): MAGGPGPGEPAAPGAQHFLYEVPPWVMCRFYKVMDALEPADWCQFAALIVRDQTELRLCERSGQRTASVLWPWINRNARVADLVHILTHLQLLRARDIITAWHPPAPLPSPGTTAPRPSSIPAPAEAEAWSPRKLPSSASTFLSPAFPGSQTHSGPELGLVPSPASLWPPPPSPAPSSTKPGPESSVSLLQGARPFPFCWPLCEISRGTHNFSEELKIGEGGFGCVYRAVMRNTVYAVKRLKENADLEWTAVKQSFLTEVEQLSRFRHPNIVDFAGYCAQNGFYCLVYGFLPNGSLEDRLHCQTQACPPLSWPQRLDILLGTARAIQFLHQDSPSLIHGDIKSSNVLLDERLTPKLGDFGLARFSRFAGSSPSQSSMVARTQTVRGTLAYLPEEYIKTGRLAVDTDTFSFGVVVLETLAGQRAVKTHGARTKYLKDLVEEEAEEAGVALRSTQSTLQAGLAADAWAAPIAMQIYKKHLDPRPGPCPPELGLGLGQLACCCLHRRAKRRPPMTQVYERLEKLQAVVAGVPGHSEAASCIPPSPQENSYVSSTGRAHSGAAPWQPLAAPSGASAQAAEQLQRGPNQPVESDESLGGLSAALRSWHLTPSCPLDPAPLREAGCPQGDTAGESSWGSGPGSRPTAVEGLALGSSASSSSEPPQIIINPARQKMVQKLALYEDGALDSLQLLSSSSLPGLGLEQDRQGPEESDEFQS
Outline: as §1

TAB2 = target: T1, TAB2 (Homo sapiens, UniProt Q9NYJ8)
T1 sequence (Q9NYJ8 1-693): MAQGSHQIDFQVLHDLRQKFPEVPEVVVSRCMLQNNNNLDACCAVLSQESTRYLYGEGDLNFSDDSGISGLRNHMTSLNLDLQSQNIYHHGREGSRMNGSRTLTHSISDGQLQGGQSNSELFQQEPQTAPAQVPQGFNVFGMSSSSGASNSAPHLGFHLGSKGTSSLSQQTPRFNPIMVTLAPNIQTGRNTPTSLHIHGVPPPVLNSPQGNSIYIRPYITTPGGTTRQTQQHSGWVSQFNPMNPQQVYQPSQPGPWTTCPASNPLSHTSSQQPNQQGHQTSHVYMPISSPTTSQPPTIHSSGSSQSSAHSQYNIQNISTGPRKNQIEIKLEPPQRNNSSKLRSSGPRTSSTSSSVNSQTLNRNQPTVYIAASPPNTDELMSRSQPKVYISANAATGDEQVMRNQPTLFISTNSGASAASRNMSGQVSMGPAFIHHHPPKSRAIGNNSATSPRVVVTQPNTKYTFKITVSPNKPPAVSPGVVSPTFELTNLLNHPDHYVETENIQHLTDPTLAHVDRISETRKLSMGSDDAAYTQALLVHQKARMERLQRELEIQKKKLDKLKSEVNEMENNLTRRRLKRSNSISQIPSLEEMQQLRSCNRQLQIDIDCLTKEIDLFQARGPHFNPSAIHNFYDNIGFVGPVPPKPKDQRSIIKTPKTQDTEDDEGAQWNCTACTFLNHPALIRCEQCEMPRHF
T1 sequence (O43318 1-606 partner): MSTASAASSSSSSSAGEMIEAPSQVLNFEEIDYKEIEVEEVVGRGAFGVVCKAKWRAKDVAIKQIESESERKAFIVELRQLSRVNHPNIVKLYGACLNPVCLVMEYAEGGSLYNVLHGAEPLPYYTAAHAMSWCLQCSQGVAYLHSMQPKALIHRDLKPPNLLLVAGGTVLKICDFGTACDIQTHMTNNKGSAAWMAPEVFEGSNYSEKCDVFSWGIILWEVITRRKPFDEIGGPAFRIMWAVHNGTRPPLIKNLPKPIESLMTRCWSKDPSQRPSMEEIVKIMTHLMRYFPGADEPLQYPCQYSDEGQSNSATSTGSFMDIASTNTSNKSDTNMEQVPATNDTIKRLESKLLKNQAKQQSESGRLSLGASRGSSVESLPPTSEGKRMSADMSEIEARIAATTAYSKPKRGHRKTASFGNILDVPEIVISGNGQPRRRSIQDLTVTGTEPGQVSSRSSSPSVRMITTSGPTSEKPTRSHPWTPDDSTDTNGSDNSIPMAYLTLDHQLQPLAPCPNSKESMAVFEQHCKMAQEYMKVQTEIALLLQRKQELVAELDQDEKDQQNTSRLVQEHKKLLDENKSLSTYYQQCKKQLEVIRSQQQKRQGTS
Outline: as §1

HSPA5, sequence (P11021 19-654): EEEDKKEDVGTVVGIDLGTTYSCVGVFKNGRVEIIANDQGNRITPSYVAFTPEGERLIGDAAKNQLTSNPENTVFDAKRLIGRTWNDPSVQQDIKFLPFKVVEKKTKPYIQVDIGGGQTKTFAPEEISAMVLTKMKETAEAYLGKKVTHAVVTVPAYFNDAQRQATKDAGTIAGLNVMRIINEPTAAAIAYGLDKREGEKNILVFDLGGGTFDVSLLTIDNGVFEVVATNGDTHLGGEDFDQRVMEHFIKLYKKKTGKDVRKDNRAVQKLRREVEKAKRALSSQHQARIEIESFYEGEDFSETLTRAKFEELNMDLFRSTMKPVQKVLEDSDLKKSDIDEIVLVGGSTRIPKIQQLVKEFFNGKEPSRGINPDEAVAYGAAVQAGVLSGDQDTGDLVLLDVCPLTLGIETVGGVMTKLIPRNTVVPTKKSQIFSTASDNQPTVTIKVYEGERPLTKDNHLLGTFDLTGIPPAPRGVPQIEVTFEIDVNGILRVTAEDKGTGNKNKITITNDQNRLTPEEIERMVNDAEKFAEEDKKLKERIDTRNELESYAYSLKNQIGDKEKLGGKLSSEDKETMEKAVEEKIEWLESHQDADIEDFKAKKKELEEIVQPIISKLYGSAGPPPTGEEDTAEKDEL

Structure (SMILES): Cc1ccc(C(=O)Nc2ccc(CN3CCN(CCCN)CC3)c(C(F)(F)F)c2)cc1C#Cc1cnc2cccnn12 [c-ponatinib]
- Av. SC comp. (HSPA5; + free ponatinib): 2.75
- Total SC comp. (HSPA5; + free ponatinib): 11
- Av. SC (HSPA5; no competitor): 7
- Total SC (HSPA5; no competitor): 28
- Av. SC comp. (IRAK1; + free ponatinib): 4
- Total SC comp. (IRAK1; + free ponatinib): 16
- Av. SC (IRAK1; no competitor): 24.25
- Total SC (IRAK1; no competitor): 97
- Av. SC comp. (TAB2; + free ponatinib): 0
- Total SC comp. (TAB2; + free ponatinib): 0
- Av. SC (TAB2; no competitor): 2.5
- Total SC (TAB2; no competitor): 10
